Results: patent publication US4223041A, “Urea derivatives to treat anxiety and aggressivity” (Labaz, priority 1976, dated 1980)

What was measured:
[1] = "Electrically-provoked combat" test (anxiolytic action); assay type: in vivo, mouse; details: mice
Source text: Under certain conditions, a pair of mice reacts to an electric stimulus by a series of combats which are provoked by the anxiety felt by the animals as a result of the electric shock. This anxiety is expressed by a combat with the other animal which is rendered responsible. For this reason, the test described hereunder can be considered as a means of evaluating the anxiolytic action of a compound. Two mice which have been previously on a diet consisting only of water are placed together in a cage. They are then submitted to a series of electric impulses of an intensity varying between 40 and 80 volts according to the sensitivity of the animals. The test is first carried out with untreated animals as controls and then with the same animals treated 30 minutes before the test with a dose of the compound to be studied.
Note is taken on the number of combats engaged. The results are expressed in percentage of decrease in the number of combats engaged by the treated animals in comparison with the number of combats registered before treatment.

[2] = Action on the pentylenetetrazole-induced seizure (anticonvulsant activity); assay type: in vivo, mouse; details: Mus musculus, 3 h; 320 mg/kg oral, mice, 15 min before 125 mg/kg pentylenetetrazole; read-out: % of protection against death
Procedure: The purpose of this test which is carried out on mice is to determine whether the compounds of the invention, when given preventively by oral route, are capable at certain doses of protecting some of the animals against the epileptic seizure produced by a predetermined dose of pentylenetetrazole which would be 100% fatal in the absence of the compound.
The compound to be studied was administered fifteen minutes before an injection of 125 mg/kg of pentylenetetrazole and note was taken of the number of deaths occurring during the three hours following this injection. The results were expressed in percentage of protection of the animals against death at the dose studied.

[3] = Effects on α- and β-adrenergic effects provoked by epinephrine; assay type: in vivo, rat; details: 200 mg/kg i.p.

## CCCC(CCC)(CCC)NC(N)=O [Compound A, 1-(1,1-Di-n-propyl-n-butyl)-urea]
[1]; Mus musculus, 0.5 h, 58 mg/kg, 30 min before test, read-out: % of decrease in number of combats
  inhibition in vivo at 58 mg/kg: 50%
[1]; without action on spontaneous motoricity
  decrease in number of combats obtainable without altering spontaneous motoricity: 80%
[2]
  responders at 320 mg/kg: 50%
[3]
  α-adrenergic effects provoked by epinephrine: does not modify
  β-adrenergic effects provoked by epinephrine: does not modify
